In ChEMBL document CHEMBL1126797 (J Med Chem, 1993):
pIC50: −log10 of the molar value.

Key:
DNA topoisomerase 1 [1] = molecular target: T1, DNA topoisomerase 1 (Homo sapiens, UniProt P11387); test: Inhibition of Topoisomerase I by cleavage complex formation in human HL-60 cells; type: cell-based
T1 sequence (P11387 whole entry): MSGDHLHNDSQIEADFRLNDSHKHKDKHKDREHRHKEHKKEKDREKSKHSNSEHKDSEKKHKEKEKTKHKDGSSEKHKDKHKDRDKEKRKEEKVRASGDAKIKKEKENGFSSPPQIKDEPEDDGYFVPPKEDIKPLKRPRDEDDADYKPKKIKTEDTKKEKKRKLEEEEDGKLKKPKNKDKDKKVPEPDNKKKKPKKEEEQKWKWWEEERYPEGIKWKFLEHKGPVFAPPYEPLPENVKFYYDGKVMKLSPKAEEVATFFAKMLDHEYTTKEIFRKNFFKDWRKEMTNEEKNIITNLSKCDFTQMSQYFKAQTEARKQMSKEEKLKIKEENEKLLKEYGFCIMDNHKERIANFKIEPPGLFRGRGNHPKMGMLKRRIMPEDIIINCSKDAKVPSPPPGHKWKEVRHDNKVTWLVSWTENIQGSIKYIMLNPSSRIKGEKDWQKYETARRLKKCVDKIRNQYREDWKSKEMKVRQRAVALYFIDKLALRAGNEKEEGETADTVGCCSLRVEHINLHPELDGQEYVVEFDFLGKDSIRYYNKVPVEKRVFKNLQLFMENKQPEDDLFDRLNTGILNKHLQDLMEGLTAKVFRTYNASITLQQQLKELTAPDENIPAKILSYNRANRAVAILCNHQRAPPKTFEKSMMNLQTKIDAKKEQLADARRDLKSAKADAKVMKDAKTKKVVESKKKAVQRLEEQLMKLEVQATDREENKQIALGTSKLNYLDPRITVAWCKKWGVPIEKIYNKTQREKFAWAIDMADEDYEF

Mus musculus [2] = test: Relative survival in RAW117-H10 cells implanted mice in comparison to control at dose of 3 mg/kg; type: functional
[3] = Number of metastases in K1735-M2 murine melanoma cells after subcutaneous administration on days1,4,6,8 at dose of 3 mg/kg; type: functional, Mus musculus
DNA topoisomerase 1 [4] = molecular target: T1, DNA topoisomerase 1; test: Inhibition of Topoisomerase I by cleavage complex formation in intact human HL-60 cells; type: cell-based
Mus musculus [5] = test: Relative survival in L1210 lymphoid leukemic mice after subcutaneous administration on days 1,4,6,8 at dose of 3 mg/kg; type: functional
[6] = Number of metastases in K1735-M2 murine melanoma cells after subcutaneous administration at dose of 2.5 mg/kg; type: functional, Mus musculus
Mus musculus [7] = test: Highest active dose in L1210 lymphoid leukemic mice at dose range of 0.6-5 mg/kg; type: functional
Mus musculus [8] = species: Mus musculus; test: Number of L1210 lymphoid leukemic mice cured out of […]; type: functional
HT-29 [9] = test: Tumor volume in HT-29 cells after subcutaneous administration on days 16,20,23,27,30,34,37,41,44,48 at dose of 2.5 mg/kg; type: functional, Homo sapiens
Mus musculus [10] = species: Mus musculus; test: Toxic dose in L1210 lymphoid leukemic mice; type: toxicity, organism-based; conditions: in vivo
Mus musculus [11] = test: Relative survival in L1210 lymphoid leukemic mice after subcutaneous administration on days 1,4,6,8 at dose of 4 mg/kg; type: functional
L1210 [12] = test: Log of initial tumor cell population minus log of tumor cell population at end of treatment in L1210 lymphoid leukemic mice; type: functional, Mus musculus
Mus musculus [13] = species: Mus musculus; test: Percent median survival time of treated leukemic mice compared to control; type: functional
Mus musculus [14] = test: Relative survival in RAW117-H10 cells implanted mice in comparison to control at dose of 2.5 mg/kg; type: functional
Mus musculus [15] = test: Median survival time of treated/control animals x 100 after ip injection on days 1 and 5; type: functional
Mus musculus [16] = test: Median survival time of treated/control animals x 100 after iv drug dosing on hours 1 and 5; type: functional
Mus musculus [17] = test: Highest active dose in L1210 lymphoid leukemic mice after iv drug dosing on hours 1 and 5 at dose range of 2.5-5 mg/kg; type: functional
Mus musculus [18] = test: Highest active dose in L1210 lymphoid leukemic mice after ip injection on days 1 and 5 at dose of 10 mg/kg; type: functional; conditions: route intraperitoneal
L1210 [19] = test: Log of initial tumor cell population minus log of tumor cell population at end of treatment after iv drug dosing on hours 1 and 5; type: functional, Mus musculus
L1210 [20] = test: Log of initial tumor cell population minus log of tumor cell population at end of treatment after ip injection on days 1 and 5; type: functional, Mus musculus
L1210 [21] = test: Toxic dose in L1210 murine lymphoid leukemia after iv drug dosing on hours 1 and 5; NT means not toxic at 5 mg/Kg; type: toxicity, organism-based; conditions: mouse, in vivo
L1210 [22] = test: Toxic dose in L1210 murine lymphoid leukemia after ip injection on days 1 and 5 at 10 mg/kg; NT means not toxic; type: toxicity, organism-based; parameters: dose 10 mg/kg, route intraperitoneal; conditions: mouse, in vivo
Mus musculus [23] = test: Highest active dose in L1210 lymphoid leukemic mice at dose range of 2.37-8 mg/kg; type: functional
HT-29 [24] = test: Tumor volume in HT-29 cells after subcutaneous administration on days 16,20,23,27,30,34,37,41,44,48 at dose of 3 mg/kg; type: functional, Homo sapiens
[25] = Number of metastases in K1735-M2 murine melanoma after subcutaneous administration on days1,4,6,8 at dose of 4 mg/kg; type: functional, Mus musculus
Mus musculus [26] = test: Relative survival as percent of control survival time in L1210 murine lymphoid leukemic mice after sc administration on days1,4,6,8 at dose of 4 mg/kg; type: functional; conditions: route subcutaneous
HT-29 [27] = test: Tumor volume in HT-29 cells after subcutaneous administration on days 16,20,23,27,30,34,37,41,44,48 at dose of 4 mg/kg; type: functional, Homo sapiens
Mus musculus [28] = test: Relative survival in RAW117-H10 cells implanted mice in comparison to control at dose of 4 mg/kg; type: functional
Mus musculus [29] = test: Highest active dose in L1210 lymphoid leukemic mice after i.v. drug dosing on hours 1 and 5 at dose range of 2.85-10 mg/kg; type: functional
Mus musculus [30] = test: Number of L1210 mice cured after i.v. drug dosing on hours 1 and 5; type: functional
Mus musculus [31] = test: Median survival time of treated/control animals x 100 after i.v. drug dosing on hours 1 and 5; type: functional
L1210 [32] = test: Relative survival in L1210 murine lymphoid leukemia cells after subcutaneous administration on days1,4,6,8 at dose of 6 mg/kg; type: functional, Mus musculus
[33] = Number of metastases in K1735-M2 murine melanoma cells after subcutaneous administration on days1,4,6,8 at dose of 6 mg/kg; type: functional, Mus musculus
L1210 [34] = test: Log of initial tumor cell population minus log of tumor cell population at end of treatment after i.v. drug dosing on hours 1 and 5; type: functional, Mus musculus
L1210 [35] = test: Toxic dose in L1210 murine lymphoid leukemia at dose of 20 mg/kg; NT means not toxic; type: toxicity, organism-based; parameters: dose 20 mg/kg; conditions: mouse, in vivo
Mus musculus [36] = test: Relative survival in RAW117-H10 cells implanted mice in comparison to control at dose of 6 mg/kg; type: functional

CCC1(O)C(=O)OCc2c1cc1n(c2=O)Cc2cc3c(N)c(Br)cc(Br)c3nc2-1 (racemic)
pIC50 (DNA topoisomerase 1 [1]): < 4.52

CC[C@@]1(O)C(=O)OCc2c1cc1n(c2=O)Cc2cc3cc(C#N)ccc3nc2-1
pIC50 (DNA topoisomerase 1 [1]): 5.72

CC1(O)C(=O)OCc2c1cc1n(c2=O)Cc2cc3ccccc3nc2-1 (racemic)
pIC50 (DNA topoisomerase 1 [1]): 5.40

CCC1(O)C(=O)OCc2c1cc1n(c2=O)Cc2cc3c(N)c4c(cc3nc2-1)OCO4 (racemic)
T/C (Mus musculus [2]): 1.6
Control [3]: 25%
pIC50 (DNA topoisomerase 1 [4]): 7.16
T/C (Mus musculus [5]): 3
pIC50 (DNA topoisomerase 1 [1]): 7.12

CCC1(O)C(=O)OCc2c1cc1n(c2=O)Cc2cc3c(CN4CC4)c(O)ccc3nc2-1 (configuration not stated)
pIC50 (DNA topoisomerase 1 [1]): 5.96

CCC1(O)C(=O)OCc2c1cc1n(c2=O)Cc2cc3cc(OC(=O)N4CCN(C)CC4)ccc3nc2-1 (configuration not stated)
pIC50 (DNA topoisomerase 1 [1]): 5.36

CC[C@@]1(O)C(=O)OCc2c1cc1n(c2=O)Cc2cc3c(N)cccc3nc2-1 [9-AMINOCAMPTOTHECIN]
Control [6]: 73%
Highest active dose (Mus musculus [7]): 0.6 mg/kg
Cures (Mus musculus [8]): 3
Control (HT-29 [9]): 25%
Toxic dose (Mus musculus [10]): 10 mg/kg
T/C (Mus musculus [11]): 2.44
pIC50 (DNA topoisomerase 1 [1]): 6.96
KE (L1210 [12]): 5.97
T/C (Mus musculus [13]): 361%
T/C (Mus musculus [14]): 1.15

CCC1(OC(=O)CN)C(=O)OCc2c1cc1n(c2=O)Cc2cc3c(N)cccc3nc2-1.Cl (racemic)
T/C (Mus musculus [15]): 132%
T/C (Mus musculus [16]): 168%
pIC50 (DNA topoisomerase 1 [4]): 5.17
Highest active dose (Mus musculus [17]): 5 mg/kg
Highest active dose (Mus musculus [18]): 10 mg/kg
pIC50 (DNA topoisomerase 1 [1]): 5.26
KE (L1210 [19]): 1.67
KE (L1210 [20]): -1
Toxic dose (L1210 [21]): Not toxic
Toxic dose (L1210 [22]): Non-toxic

CCC1(O)C(=O)OCc2c1cc1n(c2=O)Cc2cc3c4c(ccc3nc2-1)OCO4 (racemic)
pIC50 (DNA topoisomerase 1 [1]): 5.42

CCC1(O)C(=O)OCc2c1cc1n(c2=O)Cc2cc3c(Cl)c(Cl)ccc3nc2-1 (configuration not stated)
pIC50 (DNA topoisomerase 1 [1]): 6.96

CC[C@@]1(O)C(=O)OCc2c1cc1n(c2=O)Cc2cc3c([N+](=O)[O-])c4c(cc3nc2-1)OCO4
pIC50 (DNA topoisomerase 1 [1]): 6.82

CC[C@@]1(O)C(=O)OCc2c1cc1n(c2=O)Cc2cc3c(C)cccc3nc2-1
Cures (Mus musculus [8]): 4
Toxic dose (Mus musculus [10]): 12 mg/kg
pIC50 (DNA topoisomerase 1 [1]): 7.42
KE (L1210 [12]): 5.6
T/C (Mus musculus [13]): 274%
Highest active dose (Mus musculus [23]): 8 mg/kg

CC[C@@]1(O)C(=O)OCc2c1cc1n(c2=O)Cc2cc3cc4c(cc3nc2-1)OCO4
T/C (Mus musculus [2]): 1.33
Control [3]: 9%
T/C (Mus musculus [5]): 1.49
Control (HT-29 [24]): 18%

CC[C@@](O)(C(=O)[O-])c1cc2n(c(=O)c1CO)Cc1cc3cc4c(cc3nc1-2)OCO4.[Na+]
Control [25]: 15%
T/C (Mus musculus [26]): 2.13
Control (HT-29 [27]): 40%
T/C (Mus musculus [28]): 1.36
pIC50 (DNA topoisomerase 1 [1]): 6.08

CC[C@@](O)(C(=O)O)c1cc2n(c(=O)c1CO)Cc1cc3ccccc3nc1-2
pIC50 (DNA topoisomerase 1 [1]): 4.92

CC[C@]1(O)C(=O)OCc2c1cc1n(c2=O)Cc2cc3c(N)c4c(cc3nc2-1)OCO4
pIC50 (DNA topoisomerase 1 [1]): < 4.52

O=C1OCc2c(cc3n(c2=O)Cc2cc4ccccc4nc2-3)C1(O)CCBr (racemic)
pIC50 (DNA topoisomerase 1 [1]): 5.51

CCC1(O)C(=O)OCc2c1cc1n(c2=O)Cc2cc3cc(OC(=O)N4CCC(N5CCCCC5)CC4)ccc3nc2-1 (configuration not stated)
pIC50 (DNA topoisomerase 1 [1]): 4.68

CCC(O)(C(=O)[O-])c1cc2n(c(=O)c1CO)Cc1cc3cc4c(cc3nc1-2)OCO4.[Na+] (racemic)
Highest active dose (Mus musculus [29]): 10 mg/kg
Cures (Mus musculus [30]): 0
T/C (Mus musculus [31]): 157%
T/C (L1210 [32]): 2.13
Control [33]: 4%
pIC50 (DNA topoisomerase 1 [1]): 6.26
KE (L1210 [34]): 4.79
Toxic dose (L1210 [35]): Non-toxic
T/C (Mus musculus [36]): 1.32

CCC1(O)C(=O)OCc2c1cc1n(c2=O)Cc2cc3c(F)cccc3nc2-1 (configuration not stated)
pIC50 (DNA topoisomerase 1 [1]): 6.80
